Among the data in patent US20240066136A1, “MODIFIED PROTEINS AND PROTEIN DEGRADERS” (Cullgen (Shanghai), Inc., priority 2020, published 2024) are CDK4 protein levels, IC50 and Kd values, retold here.

Read-outs that look alike come from different tables or passages of the source. Where only a bound is given, the exact number is not on record here.

A word on the IC50: it is the midpoint of a concentration-inhibition curve. A low value points to higher potency. What is called Kd is the concentration at which binding is half-saturated.

One assay has as its target CDK4 (Homo sapiens (Human), UniProt P11802). Kind of assay: Immunoblot of CDK4 protein in Calu-1 cells. It is filed as cell-based. As to conditions: indicated concentrations, 16 hours, immunoblot. On the procedure:
Additional heterobifunctional compounds were designed and tested for their ability to target and degrade another two target proteins, CDK4 and CDK6. Calu-1 cells that express CDK4/6 proteins were treated with heterobifunctional compounds disclosed herein (D-44 to D-49) at indicated concentrations for 16 hours. Cells were collected, lysed and subject to immunoblotting using an antibody specific to CDK4, CDK6 or phosphorylated Rb proteins. Tubulin was included as the loading control. DMSO treatment was used as the negative control. […] In addition, Calu-1 cells were treated with 1 μM D-48 or D-49 for an indicated period of time. Subsequently, changes in CDK4 and CDK6 protein levels were measured by immunoblotting. […] These experiments highlight the ability of DDB1 binder derived heterobifunctional compounds to degrade multiple different target proteins, including but not limited to epigenetic target proteins, such as CBP and p300, and kinases, such as CDK4 and CDK6.
In general terms: In western blotting, separated proteins are transferred to a membrane and probed.

The next assay relates to Calu-1. Kind of assay: Cell viability assay (CellTiter-Glo). Type of assay: cell-based. As to conditions: Homo sapiens, 120 h; Calu-1, 5 days. The protocol:
(§1) Calu-1, MDA-MB-453 or MIA PaCa-2 cancer cells were treated with Palbociclib or selected heterobifunctional compounds for 5 days at indicated concentrations following a 2-fold serial dilution.
(§2) A variety of cancer cell lines were treated with Palbociclib or selected heterobifunctional compounds for 5 days at indicated concentrations in FIG. 12.
(§3) Cell Culture. LNCaP (clone FGC), Calu-1, MDA-MB-468, MDA-MB-453, NCI-H358, HCC1937, BT-549, HCT116, A375, SK-MEL-28, SK-N-SH, MIA PaCa-2, HS 578T, HCC827, MIA PaCa-2, and other cells were cultured at 37° C. with 5% CO2 in DMEM or RPMI 1640 Medium supplemented with 10% fetal bovine serum. Cells were authenticated using the short tandem repeat (STR) assays. Mycoplasma test results were negative.
(§4) Cell viability assay. Cells were seeded at a density of 5000 cells per well in 96-well assay plates and treated with test compounds following a 11-point 3-fold serial dilution for 3-5 days. Three days later, cell viability was determined using the CellTiter-Glo Assay Kit according to the manufacturer's instructions. The dose-response curves were determined and IC50 values were calculated using the GraphPad Prism software following a nonlinear regression (least squares fit) method.
On the technique in general: In ATP-based viability assays light output follows the ATP content of the culture.

The subject of the next assay is MIA PaCa-2. Kind of assay: Cell viability assay (CellTiter-Glo). As to conditions: Homo sapiens, 120 h; MIA PaCa-2, 5 days. It is filed as cell-based. The protocol: as §1, §2, §3, §4
Another assay deals with MDAMB-453. Kind of assay: Cell viability assay (CellTiter-Glo). As to conditions: Homo sapiens, MDA-MB-453, 120 h; MDAMB-453, 5 days. It is filed as cell-based. The protocol: as §1, §2, §3, §4
The subject of another assay is HCC1937. Kind of assay: Cell viability assay (CellTiter-Glo). Type of assay: cell-based. As to conditions: Homo sapiens, 120 h; HCC1937, 5 days. The protocol:
as §2, §3, §4

Another assay has as its system NCI-H358. Kind of assay: Cell viability assay (CellTiter-Glo). Type of assay: cell-based. As to conditions: Homo sapiens, 120 h; NCI-H358, 5 days. The protocol:
as §2, §3, §4

A further assay has as its system MDAMB-468. Kind of assay: Cell viability assay (CellTiter-Glo). Type of assay: cell-based. As to conditions: Homo sapiens, MDA-MB-468, 120 h; MDAMB-468, 5 days. The protocol:
as §2, §3, §4

The next assay has as its system HCT116. Kind of assay: Cell viability assay (CellTiter-Glo). Type of assay: cell-based. As to conditions: Homo sapiens, HCT-116, 120 h; HCT116, 5 days. The protocol: as §2, §3, §4
In another assay the test system is SK-MEL-28. Kind of assay: Cell viability assay (CellTiter-Glo). It is filed as cell-based. As to conditions: Homo sapiens, 120 h; SK-MEL-28, 5 days. On the procedure: as §2, §3, §4
Another assay relates to A375. Kind of assay: Cell viability assay (CellTiter-Glo). It is filed as cell-based. As to conditions: Homo sapiens, A-375, 120 h; A375, 5 days. On the procedure:
as §2, §3, §4

The subject of a further assay is Hs 578T. Kind of assay: Cell viability assay (CellTiter-Glo). Type of assay: cell-based. As to conditions: Homo sapiens, 120 h, 5 days. On the procedure:
as §2, §3, §4

Another assay has as its system SK-N-SH. Kind of assay: Cell viability assay (CellTiter-Glo). It is filed as cell-based. As to conditions: Homo sapiens, 120 h, 5 days. On the procedure:
as §2, §3, §4

The subject of another assay is BT-549. Kind of assay: Cell viability assay (CellTiter-Glo). It is filed as cell-based. As to conditions: Homo sapiens, 120 h; BT-549, 5 days. The protocol:
as §2, §3, §4

A further assay concerns HCC827. Kind of assay: Cell viability assay (CellTiter-Glo). As to conditions: Homo sapiens, 120 h; HCC827, 5 days. It is filed as cell-based. The protocol:
as §2, §3, §4

A further assay deals with Human DDB1 (Homo sapiens (Human), UniProt Q16531). Kind of assay: Surface plasmon resonance (SPR) binding assay to immobilized His-DDB1. As to conditions: SPR. A digest of the protocol:
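Baculovirus-expressed His-DDB1 (High5 cells) amine-coupled to 11,000–13,000 RU on a CM5 chip; compounds injected in multi-cycle format without regeneration at 25° C in HBS-EP pH 7.4 (120 s association/dissociation). Double-referenced, solvent-corrected data fit to steady-state affinity model for KD.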
(SPR reads the build-up and loss of mass on a sensor chip optically.)

Where [1] appears, read: DDB1 binding moieties with linkers and/or target protein binding moiety, read-out: Binding (Kd).
Setting [2] is: steady state affinity model, 25° C., read-out: Binding (DDB1 binder activities, Kd).

Human DDB1, sequence (Q16531 whole entry): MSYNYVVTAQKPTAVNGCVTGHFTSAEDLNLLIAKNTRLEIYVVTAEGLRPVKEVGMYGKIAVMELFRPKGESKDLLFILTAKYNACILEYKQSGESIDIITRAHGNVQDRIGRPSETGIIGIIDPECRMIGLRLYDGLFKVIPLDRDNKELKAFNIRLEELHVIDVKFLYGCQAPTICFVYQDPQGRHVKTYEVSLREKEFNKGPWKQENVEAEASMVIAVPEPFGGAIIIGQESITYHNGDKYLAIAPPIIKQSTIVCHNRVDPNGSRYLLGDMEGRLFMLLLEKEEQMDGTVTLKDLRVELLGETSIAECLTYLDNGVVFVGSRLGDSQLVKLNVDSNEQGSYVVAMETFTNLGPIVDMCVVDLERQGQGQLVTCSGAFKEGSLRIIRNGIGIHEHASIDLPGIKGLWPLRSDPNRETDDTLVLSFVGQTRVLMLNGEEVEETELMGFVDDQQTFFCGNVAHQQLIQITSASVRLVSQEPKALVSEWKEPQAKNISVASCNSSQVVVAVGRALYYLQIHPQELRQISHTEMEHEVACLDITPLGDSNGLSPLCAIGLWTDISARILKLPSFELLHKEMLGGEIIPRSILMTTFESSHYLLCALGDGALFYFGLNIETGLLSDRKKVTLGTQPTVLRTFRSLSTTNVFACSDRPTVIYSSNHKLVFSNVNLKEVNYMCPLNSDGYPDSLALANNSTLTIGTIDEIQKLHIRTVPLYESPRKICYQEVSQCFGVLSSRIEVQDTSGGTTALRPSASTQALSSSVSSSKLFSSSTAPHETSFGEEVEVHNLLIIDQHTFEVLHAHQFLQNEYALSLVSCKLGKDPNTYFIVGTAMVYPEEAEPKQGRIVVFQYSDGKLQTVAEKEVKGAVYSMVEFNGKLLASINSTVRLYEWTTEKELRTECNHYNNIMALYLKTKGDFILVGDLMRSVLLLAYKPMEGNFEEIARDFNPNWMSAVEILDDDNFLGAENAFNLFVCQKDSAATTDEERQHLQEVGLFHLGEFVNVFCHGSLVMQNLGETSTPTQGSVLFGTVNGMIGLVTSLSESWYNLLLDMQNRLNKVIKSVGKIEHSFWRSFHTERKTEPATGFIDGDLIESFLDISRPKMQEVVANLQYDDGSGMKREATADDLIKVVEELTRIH
CDK4, sequence (P11802 whole entry): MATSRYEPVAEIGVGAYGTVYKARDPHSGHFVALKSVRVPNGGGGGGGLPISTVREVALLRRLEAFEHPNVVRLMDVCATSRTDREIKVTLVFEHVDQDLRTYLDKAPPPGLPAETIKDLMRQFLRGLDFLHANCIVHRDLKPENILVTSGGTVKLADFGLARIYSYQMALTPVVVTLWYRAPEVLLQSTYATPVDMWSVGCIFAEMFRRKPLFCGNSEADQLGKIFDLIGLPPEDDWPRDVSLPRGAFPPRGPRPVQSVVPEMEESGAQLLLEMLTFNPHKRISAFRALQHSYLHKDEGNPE

`CC(=O)c1c(C)c2cnc(Nc3ccc(N4CCNCC4)cn3)nc2n(C2CCCC2)c1=O` [palbociclib, reference compound]: on CDK4, the CDK4 protein levels entry is reported as “didn't have a significant effect”. Besides, the IC50 was greater than 10 µM in the assay on Calu-1; 2 to 10 µM in the assay with MIA PaCa-2; greater than 10 µM in the assay with MDAMB-453; greater than 10 µM in the assay on HCC1937; greater than 10 µM in the assay with NCI-H358; greater than 10 µM in the assay on MDAMB-468. In addition, the IC50 was greater than 10 µM with HCT116; 2 to 10 µM in the assay with SK-MEL-28; 2 to 10 µM with A375; 2 to 10 µM with Hs 578T; greater than 10 µM in the assay with SK-N-SH; greater than 10 µM with BT-549. Moreover, the IC50 in the assay with HCC827 is greater than 10 µM.
`CC(=O)Nc1cc(NCCCCN)ccc1C(=O)Nc1nc(C)c([N+](=O)[O-])s1` [BL-11, 2-Acetamido-4-((4-aminobutyl)amino)-N-(4-methyl-5-nitrothiazol-2-yl)benzamide]: at CDK4, the CDK4 protein levels result is “didn't have a significant effect”. On Human DDB1 (setting [1]), the Kd is 20 to 100 µM.
As for `CCCCNc1ccc(C(=O)Nc2ncc([N+](=O)[O-])s2)c(C)c1` [B-165, 4-(Butylamino)-2-methyl-N-(5-nitrothiazol-2-yl)benzamide], on Human DDB1 (setting [2]), the Kd fell in the range of 20 to 100 µM.
The same measure, in the same setting: the result for `CCCCNc1ccc(C(=O)Nc2ccc([N+](=O)[O-])s2)c(C(C)C)c1` [B-134, 4-(Butylamino)-2-isopropyl-N-(5-nitrothiophen-2-yl)benzamide] reads greater than 100 µM.
Turning to `CC(=O)Nc1cc(C(=O)NCCOCCOCCOCCN)ccc1C(=O)Nc1ncc([N+](=O)[O-])s1` [BL-6, 2-acetamido-N^4-(2-(2-(2-(2-aminoethoxy)ethoxy)ethoxy)ethyl)-N^1-(5-nitrothiazol-2-yl)terephthalamide], the Kd on Human DDB1 (setting [1]) is 20 to 100 µM.
`O=C(Nc1cccc(N2CCOC2=O)c1)c1ccccc1C1CCCN1` (centres unmarked) [B-140, N-(3-(2-oxooxazolidin-3-yl)phenyl)-2-(pyrrolidin-2-yl)benzamide]: the Kd on Human DDB1 (setting [2]) lay within 20 to 100 µM.
Same read-out and setting: the result for `Cc1ccccc1C(=O)Nc1nccs1` [B-176, 2-Methyl-N-(thiazol-2-yl)benzamide] reads less than 20 µM; that for `CC(=O)N(C)c1ccccc1C(=O)Nc1ncc([N+](=O)[O-])s1` [B-64, 2-(N-Methylacetamido)-N-(5-nitrothiazol-2-yl)benzamide], 20 to 100 µM.
On the same count and under the same terms, with `CC(=O)Nc1ccccc1C(=O)Nc1ccc(Cl)cn1` [B-54, 2-Acetamido-N-(5-chloropyridin-2-yl)benzamide] the figure was 20 to 100 µM.
As for `CC(=O)Nc1ccccc1C(=O)Nc1nc(C(C)C)c([N+](=O)[O-])s1` [B-33, 2-Acetamido-N-(4-isopropyl-5-nitrothiazol-2-yl)benzamide], at Human DDB1 (setting [2]), the Kd was less than 20 µM.
Regarding `CC(=O)Nc1cc(NCCOCCNC(=O)C[C@@H]2N=C(c3ccc(Cl)cc3)c3c(sc(C)c3C)-n3c(C)nnc32)ccc1C(=O)Nc1nc(C)c([N+](=O)[O-])s1` [D-32, (S)-2-Acetamido-4-((2-(2-(2-(4-(4-chlorophenyl)-2,3,9-trimethyl-6H-thieno[3,2-f][1,2,4]triazolo[4,3-a][1,4]diazepin-6-yl)acetamido)ethoxy)ethyl)amino)-N-(4-methyl-5-nitrothiazol-2-yl)benzamide], the dissociation constant (Kd) on Human DDB1 (setting [1]) lay within 20 to 100 µM.
As for `CC(C)COc1ccccc1C(=O)N(C)c1ncc([N+](=O)[O-])s1` [B-103, 2-Isobutoxy-N-methyl-N-(5-nitrothiazol-2-yl)benzamide], the Kd on Human DDB1 (setting [2]) lay within 20 to 100 µM.
The same measure, in the same setting: the result for `CC(=O)Nc1ccccc1C(=O)Nc1ncc(F)s1` [B-36, 2-Acetamido-N-(5-fluorothiazol-2-yl)benzamide] reads 20 to 100 µM; that for `CC(=O)Nc1ccccc1C(=O)Nc1nc(Br)c([N+](=O)[O-])s1` [B-30, 2-acetamido-N-(4-bromo-5-nitrothiazol-2-yl)benzamide], 20 to 100 µM.
The same measure, in the same setting: the result for `CCc1nnc(CNC(=O)c2ccccc2C2CCNC2)s1` (centres unmarked) [B-141, N-((5-ethyl-1,3,4-thiadiazol-2-yl)methyl)-2-(pyrrolidin-3-yl)benzamide] reads 20 to 100 µM; that for `CC(=O)Nc1ccccc1C(=O)Nc1ccc([N+](=O)[O-])cn1` [B-53, 2-Acetamido-N-(5-nitropyridin-2-yl)benzamide], 20 to 100 µM; that for `Cc1cccc(C)c1C(=O)Nc1ncc([N+](=O)[O-])s1` [B-157, 2,6-Dimethyl-N-(5-nitrothiazol-2-yl)benzamide], greater than 100 µM.
Same read-out and setting: the result for `CC(=O)Nc1ccccc1C(=O)Nc1cccc([N+](=O)[O-])c1` [B-124, 2-Acetamido-N-(3-nitrophenyl)benzamide] reads less than 20 µM.
`CC(=O)Nc1ccccc1C(=O)Nc1nc(Cl)c([N+](=O)[O-])s1` [B-29, 2-Acetamido-N-(4-chloro-5-nitrothiazol-2-yl)benzamide]: the Kd on Human DDB1 (setting [2]) is 20 to 100 µM.
For `CCCNC(=O)c1ccc(OC(C)=O)c(C(=O)Nc2ncc([N+](=O)[O-])s2)c1` [B-13, 2-((5-Nitrothiazol-2-yl)carbamoyl)-4-(propylcarbamoyl)phenyl acetate], the Kd at Human DDB1 (setting [2]) lay in the range of 20 to 100 µM.
Same read-out and setting: the result for `CNc1ccccc1C(=O)Nc1ncc([N+](=O)[O-])s1` [B-68, 2-(Methylamino)-N-(5-nitrothiazol-2-yl)benzamide] reads 20 to 100 µM.
For the compound `CC(=O)Nc1cc(NCCOCCOCCOCCOCCNC(=O)CN2CCN(c3ccc(Nc4ncc5c(C)c(C(C)=O)c(=O)n(C6CCCC6)c5n4)nc3)CC2)ccc1C(=O)Nc1nc(C)c([N+](=O)[O-])s1` [D-47, 2-Acetamido-4-((1-(4-(6-((6-acetyl-8-cyclopentyl-5-methyl-7-oxo-7,8-dihydropyrido[2,3-d]pyrimidin-2-yl)amino)pyridin-3-yl)piperazin-1-yl)-2-oxo-6,9,12,15-tetraoxa-3-azaheptadecan-17-yl)amino)-N-(4-methyl-5-nitrothiazol-2-yl)benzamide], at Human DDB1 (setting [1]), the Kd is less than 20 µM.
Still for that read-out and setting: the result for `CC(=O)Nc1cc(NCCCCCCCNC(=O)C[C@@H]2N=C(c3ccc(Cl)cc3)c3c(sc(C)c3C)-n3c(C)nnc32)ccc1C(=O)Nc1nc(C)c([N+](=O)[O-])s1` [D-29, (S)-2-Acetamido-4-((7-(2-(4-(4-chlorophenyl)-2,3,9-trimethyl-6H-thieno[3,2-f][1,2,4]triazolo[4,3-a][1,4]diazepin-6-yl)acetamido)heptyl)amino)-N-(4-methyl-5-nitrothiazol-2-yl)benzamide] reads 20 to 100 µM.
For `CCNc1ccccc1C(=O)Nc1ncc([N+](=O)[O-])s1` [B-6], the Kd at Human DDB1 (setting [2]) is less than 20 µM.
On the same count and under the same terms, the result for `CC(=O)Nc1ccccc1C(=O)Nc1nc(C)c(Cl)s1` [B-40, 2-acetamido-N-(5-chloro-4-methylthiazol-2-yl)benzamide] reads 20 to 100 µM; that for `CC(=O)Nc1ccccc1C(=O)Nc1cccnc1` [B-122, 2-Acetamido-N-(pyridin-3-yl)benzamide], greater than 100 µM.
Still for that read-out and setting: with `CC(=O)Nc1ccccc1C(=O)Nc1nccs1` [B-41, 2-Acetamido-N-(thiazol-2-yl)benzamide] the figure was greater than 100 µM.
